# From patent US10597388B2, “Pyridazinone herbicides” (FMC CORPORATION, priority 2014, dated 2020)
# Key:
# Experiment in all cases: Test E greenhouse herbicide test, pre- and postemergence
# Assay type in all cases: in vivo
# corn (Zea mays) = test system: corn (Zea mays)
# Summary of the method: (§1)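 For each species, sown seed in silt loam and young plants (2 to 18 cm) in a peat/vermiculite medium were each treated with compound dissolved in surfactant-containing, non-phytotoxic solvent. After 14 to 21 d under greenhouse conditions, effects were visually rated, 100 meaning complete control.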
# [1] = test system: sandbur (southem sandbur, Cenchrus echinatus)
# Summary of the method: as §1
# [2] = test system: velvetleaf (Abutilon theophrasti); settings: Preemergence
# Summary of the method: as §1
# [3] = test system: Italian ryegrass (Lolium multiflorum)
# Summary of the method: as §1
# [4] = test system: johnsongrass (Sorghum halepense); settings: Preemergence
# Summary of the method: as §1
# [5] = test system: crabgrass, large (large crabgrass, Digitaria sanguinalis); settings: Preemergence
# Summary of the method: as §1
# [6] = test system: nutsedge, yellow (yellow nutsedge, Cyperus esculentus); settings: Preemergence
# Summary of the method: as §1
# [7] = test system: pigweed, palmer (palmer pigweed, Amaranthus palmeri)
# Summary of the method: as §1
# kochia (Kochia scoparia) = settings: Preemergence
# Summary of the method: as §1
# [8] = test system: nightshade (eastern black nightshade, Solanum ptycanthum); settings: Preemergence
# Summary of the method: as §1
# [9] = test system: surinam grass (Brachiaria decumbens); settings: Preemergence
# Summary of the method: as §1
# [10] = test system: goosegrass (Eleusine indica); settings: Preemergence
# Summary of the method: as §1
# [11] = test system: waterhemp (common waterhemp, Amaranthus rudis)
# Summary of the method: as §1
# [12] = test system: crabgrass, Brazilian (Brazilian crabgrass, Digitaria horizontalis)
# Summary of the method: as §1
# [13] = test system: barnyardgrass (Echinochloa crus-galli)
# Summary of the method: as §1
# [14] = test system: ragweed (common ragweed, Ambrosia elatior); settings: Preemergence
# Summary of the method: as §1
# [15] = test system: foxtail, green (green foxtail, Setaria viridis); settings: Preemergence
# Summary of the method: as §1
# [16] = 62 g ai/ha, Postemergence, scale 0 to 100 (0 no effect, 100 complete control)
# [17] = 62 g ai/ha, Preemergence, scale 0 to 100 (0 no effect, 100 complete control)
# [18] = 125 g ai/ha, Postemergence, scale 0 to 100 (0 no effect, 100 complete control)
# [19] = 250 g ai/ha, Postemergence, scale 0 to 100 (0 no effect, 100 complete control)
# [20] = Postemergence, 16 g ai/ha, visual, scale 0 no effect to 100 complete control
# [21] = Postemergence, 31 g ai/ha, visual, scale 0 no effect to 100 complete control
# [22] = Preemergence, 16 g ai/ha, scale 0 to 100, 0 no effect, 100 complete control
# [23] = Preemergence, 31 g ai/ha, scale 0 to 100, 0 no effect, 100 complete control
# [24] = Preemergence, 125 g ai/ha, visual, scale 0 no effect to 100 complete control
# [25] = Preemergence, 250 g ai/ha, visual, scale 0 no effect to 100 complete control
# [26] = 125 g ai/ha, Preemergence, scale 0 to 100 (0 no effect, 100 complete control)
# [27] = 62 g ai/ha, scale 0 to 100 (0 no effect, 100 complete control)
# [28] = 125 g ai/ha, scale 0 to 100 (0 no effect, 100 complete control)
# [29] = 16 g ai/ha, scale 0 to 100, 0 no effect, 100 complete control
# [30] = 31 g ai/ha, scale 0 to 100, 0 no effect, 100 complete control
# [31] = 250 g ai/ha, visual, scale 0 no effect to 100 complete control
# [32] = 125 g ai/ha, visual, scale 0 no effect to 100 complete control
smiles,measurement,setting,value
"Cc1ccc2sc(C)c(-c3c(O)c(C)nn(C)c3=O)c2c1 [Compound 1, 4-(2,5-dimethylbenzo[b]thien-3-yl)-5-hydroxy-2,6-dimethyl-3(2H)-pyridazinone]","Plant response rating, Corn",corn (Zea mays); [16],5
same,"Plant response rating, Corn",corn (Zea mays); [17],0
same,"Plant response rating, Corn",corn (Zea mays); [18],5
same,"Plant response rating, Corn",corn (Zea mays); [19],5
same,"Plant response rating, Corn",corn (Zea mays); [20],0
same,"Plant response rating, Corn",corn (Zea mays); [21],5
same,"Plant response rating, Corn",corn (Zea mays); [22],0
same,"Plant response rating, Corn",corn (Zea mays); [23],0
same,"Plant response rating, Corn",corn (Zea mays); [24],0
same,"Plant response rating, Corn",corn (Zea mays); [25],0
same,"Plant response rating, Sandbur",[1]; [16],30
same,"Plant response rating, Sandbur",[1]; [17],20
same,"Plant response rating, Sandbur",[1]; [18],30
same,"Plant response rating, Sandbur",[1]; [26],70
same,"Plant response rating, Sandbur",[1]; [19],30
same,"Plant response rating, Sandbur",[1]; [20],0
same,"Plant response rating, Sandbur",[1]; [21],10
same,"Plant response rating, Sandbur",[1]; [22],0
same,"Plant response rating, Sandbur",[1]; [23],10
same,"Plant response rating, Sandbur",[1]; [25],70
same,"Plant response rating, Velvetleaf",[2]; [27],75
same,"Plant response rating, Velvetleaf",[2]; [28],90
same,"Plant response rating, Velvetleaf",[2]; [29],35
same,"Plant response rating, Velvetleaf",[2]; [30],75
same,"Plant response rating, Velvetleaf",[2]; [31],98
same,"Plant response rating, Ryegrass, Italian",[3]; [16],50
same,"Plant response rating, Ryegrass, Italian",[3]; [17],100
same,"Plant response rating, Ryegrass, Italian",[3]; [18],65
same,"Plant response rating, Ryegrass, Italian",[3]; [26],100
same,"Plant response rating, Ryegrass, Italian",[3]; [19],90
same,"Plant response rating, Ryegrass, Italian",[3]; [20],20
same,"Plant response rating, Ryegrass, Italian",[3]; [21],35
same,"Plant response rating, Ryegrass, Italian",[3]; [22],70
same,"Plant response rating, Ryegrass, Italian",[3]; [23],95
same,"Plant response rating, Ryegrass, Italian",[3]; [25],100
same,"Plant response rating, Johnsongrass",[4]; [27],0
same,"Plant response rating, Johnsongrass",[4]; [29],0
same,"Plant response rating, Johnsongrass",[4]; [30],0
same,"Plant response rating, Johnsongrass",[4]; [32],30
same,"Plant response rating, Johnsongrass",[4]; [31],40
same,"Plant response rating, Crabgrass, Large",[5]; [27],20
same,"Plant response rating, Crabgrass, Large",[5]; [29],0
same,"Plant response rating, Crabgrass, Large",[5]; [30],0
same,"Plant response rating, Crabgrass, Large",[5]; [32],35
same,"Plant response rating, Crabgrass, Large",[5]; [31],65
same,"Plant response rating, Nutsedge, Yellow",[6]; [27],15
same,"Plant response rating, Nutsedge, Yellow",[6]; [28],50
same,"Plant response rating, Nutsedge, Yellow",[6]; [29],0
same,"Plant response rating, Nutsedge, Yellow",[6]; [30],10
same,"Plant response rating, Nutsedge, Yellow",[6]; [31],70
same,"Plant response rating, Pigweed, Palmer",[7]; [16],90
same,"Plant response rating, Pigweed, Palmer",[7]; [17],100
same,"Plant response rating, Pigweed, Palmer",[7]; [18],75
same,"Plant response rating, Pigweed, Palmer",[7]; [26],100
same,"Plant response rating, Pigweed, Palmer",[7]; [19],98
same,"Plant response rating, Pigweed, Palmer",[7]; [20],70
same,"Plant response rating, Pigweed, Palmer",[7]; [21],20
same,"Plant response rating, Pigweed, Palmer",[7]; [22],20
same,"Plant response rating, Pigweed, Palmer",[7]; [23],90
same,"Plant response rating, Pigweed, Palmer",[7]; [25],100
same,"Plant response rating, Kochia",kochia (Kochia scoparia); [27],5
same,"Plant response rating, Kochia",kochia (Kochia scoparia); [29],0
same,"Plant response rating, Kochia",kochia (Kochia scoparia); [30],0
same,"Plant response rating, Kochia",kochia (Kochia scoparia); [32],35
same,"Plant response rating, Kochia",kochia (Kochia scoparia); [31],85
same,"Plant response rating, Nightshade",[8]; [27],95
same,"Plant response rating, Nightshade",[8]; [28],100
same,"Plant response rating, Nightshade",[8]; [29],80
same,"Plant response rating, Nightshade",[8]; [30],90
same,"Plant response rating, Nightshade",[8]; [31],100
same,"Plant response rating, Surinam Grass",[9]; [27],50
same,"Plant response rating, Surinam Grass",[9]; [28],80
same,"Plant response rating, Surinam Grass",[9]; [29],0
same,"Plant response rating, Surinam Grass",[9]; [30],25
same,"Plant response rating, Surinam Grass",[9]; [31],75
same,"Plant response rating, Goosegrass",[10]; [27],5
same,"Plant response rating, Goosegrass",[10]; [29],0
same,"Plant response rating, Goosegrass",[10]; [30],15
same,"Plant response rating, Goosegrass",[10]; [32],35
same,"Plant response rating, Goosegrass",[10]; [31],25
same,"Plant response rating, Waterhemp",[11]; [16],95
same,"Plant response rating, Waterhemp",[11]; [17],100
same,"Plant response rating, Waterhemp",[11]; [18],98
same,"Plant response rating, Waterhemp",[11]; [26],100
same,"Plant response rating, Waterhemp",[11]; [19],100
same,"Plant response rating, Waterhemp",[11]; [20],70
same,"Plant response rating, Waterhemp",[11]; [21],85
same,"Plant response rating, Waterhemp",[11]; [22],35
same,"Plant response rating, Waterhemp",[11]; [23],90
same,"Plant response rating, Waterhemp",[11]; [25],100
same,"Plant response rating, Crabgrass, Brazil",[12]; [16],15
same,"Plant response rating, Crabgrass, Brazil",[12]; [17],80
same,"Plant response rating, Crabgrass, Brazil",[12]; [18],20
same,"Plant response rating, Crabgrass, Brazil",[12]; [19],35
same,"Plant response rating, Crabgrass, Brazil",[12]; [20],0
same,"Plant response rating, Crabgrass, Brazil",[12]; [21],15
same,"Plant response rating, Crabgrass, Brazil",[12]; [22],0
same,"Plant response rating, Crabgrass, Brazil",[12]; [23],10
same,"Plant response rating, Crabgrass, Brazil",[12]; [24],100
same,"Plant response rating, Crabgrass, Brazil",[12]; [25],100
same,"Plant response rating, Barnyardgrass",[13]; [16],20
same,"Plant response rating, Barnyardgrass",[13]; [17],0
same,"Plant response rating, Barnyardgrass",[13]; [18],25
same,"Plant response rating, Barnyardgrass",[13]; [19],35
same,"Plant response rating, Barnyardgrass",[13]; [20],10
same,"Plant response rating, Barnyardgrass",[13]; [21],15
same,"Plant response rating, Barnyardgrass",[13]; [22],0
same,"Plant response rating, Barnyardgrass",[13]; [23],0
same,"Plant response rating, Barnyardgrass",[13]; [24],0
same,"Plant response rating, Barnyardgrass",[13]; [25],20
same,"Plant response rating, Ragweed",[14]; [27],75
same,"Plant response rating, Ragweed",[14]; [28],100
same,"Plant response rating, Ragweed",[14]; [29],35
same,"Plant response rating, Ragweed",[14]; [30],70
same,"Plant response rating, Ragweed",[14]; [31],100
same,"Plant response rating, Foxtail, Green",[15]; [27],70
same,"Plant response rating, Foxtail, Green",[15]; [29],0
same,"Plant response rating, Foxtail, Green",[15]; [30],15
same,"Plant response rating, Foxtail, Green",[15]; [32],90
same,"Plant response rating, Foxtail, Green",[15]; [31],90
